Values after ≈ are worked out from the molar mass of the structure shown. Values joined by “and” are separate entries in the source; they are usually repeats but may differ in a detail not shown here. Equal values may be shown once. Read-outs that look alike come from different tables or passages of the source.
Tests used:
[1] = tested on: SMN2-luciferase reporter; assay: SMN2-luciferase reporter assay (clonal HEK-293 SMN2-luc cells); type: cell-based, human; details: for EC50 / Emax: Homo sapiens; for Emax: read-out: Max % Activity; for Maximum % activation: Table 7; for Max. fold increase: cell-based reporter response to known SMN2 modulating compounds
Description: The reporter cell lines were plated at 50,000 cells per well in 96-well plates and incubated overnight. Compounds were added to each well and incubated at 37° C. overnight. The final DMSO concentration was 0.1%. Luciferase activity was assayed using either STEADYGLO (PROMEGA E2510) or DUALGLO (PROMEGA E2920) luciferase using the WALLAC ENVISION multilabel reader. For detailed assay conditions see Table 2A. All data points were transformed from CPS to percent increase over basal expression in the treated control wells (DMSO or H2O as appropriate).
Plates were sealed with porous paper tape and incubated for 24 hours. […] For comparison, data points were transformed from CPS to percent activation over basal expression in the DMSO treated control wells.
For comparison, all data points are expressed as percent increase over basal luciferase expression in the control cells.

[2] = tested on: SMA mice; assay: SMA mice, intraperitoneal dosing: lifespan, weight, time to right; type: in vivo, mouse; details: for lifespan / weight of the treated animals: IP once daily post-natal day 1-10, compounds in 20% DMSO, words; for lifespan: 3-4 animals each; for Time to right: individual pup, raw data
Description: The animal studies included new derivatives of LDN-76070 and LDN-75654. Mice were injected intraperitoneally once daily from post-natal day 1-10. […] Compounds LDN-212014, LDN-212016, LDN-212351, and LDN-212391 were injected into a cohort of animals (3-4 each). […] In the Kaplan-Meier curve that DMSO control decreased survival by 50%—the compounds were in […] (FIG. 26A).
LDN-212014 and LDN-76070 were further tested in A7 SMA model mice. Mice were dosed using compounds dissolved in 100% DMSO injected at 20 mg/kg with each dose administered once daily by intraperitoneal injection. As shown in the black curves in the Kaplan-Meier plot, control animals lived 4-5 days longer than the DMSO vehicle treated animals, indicating toxicity. […] In fact, the compounds display a statistically significant increase in survival compared with the untreated animals. These compounds extend the lifespan of SMA mice despite the DMSO toxicity.
In ‘time to right’ experiments, animals are placed on their backs and the duration for animals to right themselves is recorded. Animals that are unable to right in less than 30 seconds are scored as a failure. DMSO treated animals were unable to right themselves, while a small percentage of untreated animals display the ability to right themselves for up to postnatal day (PND) 11. A larger percentage of treated animals can right themselves past PND 17, and in the case of one animal as late as PND 21.

[3] = Solubility in PBS / aqueous solution; type: physicochemical
[4] = Liver microsome stability; details: for Stabilityin liver microsomes: Table 8; for Stability: Table 9; for half-life: mouse, liver microsomes
[5] = tested on: SMN-luciferase transcripts; assay: qRT-PCR of SMN-luciferase transcripts in SMN2-luc cells; type: cell-based, human; details: 24 hours, relative to DMSO, normalized to GAPDH, aclarubicin at 300 nM, words
Description: Compounds were tested at three concentrations that display maximal activity in the luciferase assay. Cells were treated as described above for the luciferase assay. Cells were harvested by trypsinization, neutralized with trypsin inhibitor, and washed. RNA was isolated from the cells using TRIZOL Reagent (Invitrogen 15596-026). cDNA was generated using the IMPROM-II Reverse Transcription System (Promega A3801).
The forward primer pair recognizes the exon 5-6 junction, which includes a restriction site that was engineered into the reporter and will exclude amplification of endogenous SMN mRNA. The reverse primers recognize either exon 7 or luciferase for detection of full-length or total SMN-luciferase transcripts respectively. For a reference control, cDNA from the housekeeping gene glyceraldehyde-3-phosphate dehydrogenase (GAPDH) was amplified. The primers used include SMN exon5-forward ([…]) (SEQ ID NO: 3), luciferase-reverse ([…]) (SEQ ID NO: 4), exon7-reverse ([…]) (SEQ ID NO: 5), GAPDH-reverse (G3A) ([…]) (SEQ ID NO: 6) and GAPDH-forward (G3S) ([…]) (SEQ ID NO: 7). qPCR was performed as described in the protocol for iQ SYBRGREEN SUPERMIX (Biorad 170-8882) using an EPPENDORF Mastercycler ep realplex^4 Thermo Cycler. Reactions were incubated for a 10 minute, 94° C. hot start followed by 45 cycles of the following: 94° C. for 45 second, 60° C. for 15 seconds, 72° C. for 45 seconds. Melting curves for each reaction were obtained. Each sample was assayed in triplicate and every plate contained a 5-point cDNA dilution course to calculate amplification efficiency for each primer pair. The Pfaffl method was used to determine the change in transcript levels relative to the DMSO and normalized to GAPDH (Pfaffl, M. W., “A new mathematical model for relative quantification in real-time RT-PCR,” Nucleic Acids Res 2001, 29(9), 3e45).
Based on the new reporter design, it was predicted that this screen could detect increased SMN-luciferase protein levels caused by compounds that stimulate SMN2 transcription, exon 7 inclusion, or by increasing the half-life of the SMN mRNA or protein. Quantitative reverse transcriptase PCR (qRT-PCR) was used to analyze SMN-luciferase mRNAs. All assays used RNA from control and compound-treated SMN2-luc cells and primers pairs were chosen to amplify only the SMN-luciferase derived transcripts (FIG. 4A). A pair of primers were used that specifically detects both full-length (exon 7 included) and Δ7 (exon 7 excluded) SMN-luciferase transcripts (primers 1 and 3). To measure changes in exon 7 splicing efficiency, a primer pair was used that detects only the full-length (exon 7 included) SMN-luciferase transcript (primers 1 and 2).
For each sample, the percent increase in the amount of total SMN-luciferase transcripts (gray bar) and exon 7 included full-length SMN-luciferase transcripts (white bar) was plotted (FIG. 4). Compounds that increase transcription should show increased total SMN-luciferase transcripts (gray bar) with a proportional increase for exon 7 included transcripts (white bar), assuming that proper splicing of exon 7 is not rate limiting. Compounds that stimulate exon 7 inclusion should increase the amount of exon 7 included full-length transcript (white bar) detected with little to no change in the expression of total SMN-luciferase transcripts (gray bar). In these experiments, cells were treated with compound, harvested, and each cell pellet was divided for isolation of RNA and to assay luciferase activity. Each qRT-PCR sample was normalized to the housekeeping gene glyceraldehyde-3-phosphate dehydrogenase (GAPDH). The Pfaffl method was used to calculate the change in the amount of total SMN mRNA and determine whether compound treatments increased SMN transcripts.

[6] = HEK293, Table 7, read-out: EC50
[7] = HEK293, reporter assay, Table 6, read-out: Ec50
[8] = HEK293, reporter assay, Table 6
[9] = PBS, aqueous buffer, read-out: Maximal solubility in PBS
[10] = aqueous solution, Table 8, grades, read-out: Solubility in aqueous solution
[11] = T1/2 in liver microsomes, Table 7
[12] = HEK293, cell-based reporter, known SMN2 modulating compounds, read-out: EC50

COc1cc2c(c(OC)c1OC)C(c1cc(Cl)ccc1F)CC(=O)N2 (stereo not shown) [LDN-212351]
EC50 [1, 6]: 9.8 µM
EC50 [1, 7]: 12 µM
Emax [1, 8]: 150%
Maximum % activation [1]: 168.5 ± 10.6%
Active ([1]; reporter assay, Table 6): Yes
lifespan [2]: extension of lifespan
weight of the treated animals [2]: increased
Time to right ([2]; PND 6): dead and Fail (Fail = >30 sec) (2×) and 3 seconds
Time to right ([2]; PND 7): dead and Fail (Fail = >30 sec) (2×) and 5 seconds
Time to right ([2]; PND 8): dead and Fail (Fail = >30 sec) (3×)
Time to right ([2]; PND 9): dead and 13 seconds and Fail (Fail = >30 sec) (2×)
Time to right ([2]; PND 10): dead and Fail (Fail = >30 sec) (3×)
Time to right ([2]; PND 11): dead (3×) and Fail (Fail = >30 sec)
Time to right ([2]; PND 12): dead (3×) and Fail (Fail = >30 sec)
Time to right ([2]; PND 13): dead (3×) and Fail (Fail = >30 sec)
Time to right ([2]; PND 14): dead (3×) and Fail (Fail = >30 sec)
Time to right ([2]; PND 15): dead
Time to right ([2]; PND 16): dead
Time to right ([2]; PND 17): dead
Time to right ([2]; PND 18): dead
Time to right ([2]; PND 19): dead
Time to right ([2]; PND 20): dead
solubility [3, 9]: 500 µM (≈ 183 µg/mL)
solubility [3, 10]: < 500 µM
Stabilityin liver microsomes [4]: 45 min
Stability [4]: 45 min
half-life [4, 11]: 45 min
half-life ([4]; t1/2 in mouse liver microsomes, mouse liver microsomes): 45 min

CCCC(CCC)C(=O)O [Valproic Acid, valproic acid]
EC50 [1, 12]: 10000 µM
Max. fold increase [1]: 2.5 fold
exon 7 included full-length SMN-luciferase transcripts [5]: increases
total SMN-luciferase transcripts [5]: increases
exon 7 included full-length SMN-luciferase transcripts ([5]; listed as VPA): increased
total SMN-luciferase transcripts ([5]; listed as VPA): increased

COc1cc2c(c(OC)c1OC)C(c1cc(Cl)ccc1F)NC(=O)N2 (stereo not shown) [LDN-212391]
EC50 [1, 6]: 5 µM
EC50 [1, 7]: 4.4 µM
Maximum % activation [1]: 238.3 ± 28.5%
Active ([1]; reporter assay, Table 6): Yes
Max % Activity ([1]; reporter assay, Table 6): 267%
lifespan [2]: extension of lifespan
weight of the treated animals [2]: increased
Time to right ([2]; PND 6): Fail (Fail = >30 sec)
Time to right ([2]; PND 7): Fail (Fail = >30 sec)
Time to right ([2]; PND 8): Fail (Fail = >30 sec)
Time to right ([2]; PND 9): Fail (Fail = >30 sec) (2×) and 18 seconds
Time to right ([2]; PND 10): Fail (Fail = >30 sec) (2×) and 20 seconds
Time to right ([2]; PND 11): Fail (Fail = >30 sec)
Time to right ([2]; PND 12): dead and Fail (Fail = >30 sec) (2×)
Time to right ([2]; PND 13): dead and Fail (Fail = >30 sec) (2×)
Time to right ([2]; PND 14): dead and Fail (Fail = >30 sec) (2×)
Time to right ([2]; PND 15): dead and Fail (Fail = >30 sec) (2×)
Time to right ([2]; PND 16): dead (2×) and Fail (Fail = >30 sec)
Time to right ([2]; PND 17): dead (2×) and Fail (Fail = >30 sec)
Time to right ([2]; PND 18): dead (2×) and Fail (Fail = >30 sec)
Time to right ([2]; PND 19): dead (2×) and Fail (Fail = >30 sec)
Time to right ([2]; PND 20): dead
solubility [3, 9]: 1000 µM (≈ 367 µg/mL)
solubility [3, 10]: 500 to 2000 µM (≈ 183 to 734 µg/mL)
Stabilityin liver microsomes [4]: 13 to 20 min
Stability [4]: 13 to 20 min
half-life [4, 11]: 13 min

CC[C@@]1(O)C[C@H](O[C@H]2C[C@H](N(C)C)[C@H](O[C@H]3C[C@H](O)[C@H](O[C@H]4CCC(=O)[C@H](C)O4)[C@H](C)O3)[C@H](C)O2)c2c(cc3c(c2O)C(=O)c2c(O)cccc2C3=O)[C@H]1C(=O)OC [Aclarubicin, aclarubicin, reference compound]
EC50 ([1]; HEK293): 0.298 µM
Max. fold increase [1]: 10 fold
exon 7 included full-length SMN-luciferase transcripts [5]: lesser increase
total SMN-luciferase transcripts [5]: potent increase

O=C(Nc1ncc(C2(O)CCC2)s1)c1nc2ccccc2[nH]1 [LDN-214098]
EC50 [1, 7]: 0.15 µM
Emax [1, 8]: 200%
Active ([1]; reporter assay, Table 6): Yes
solubility [3, 10]: > 2000 µM
Stabilityin liver microsomes [4]: 59 min

CC(C(=O)O)c1ccc(N2Cc3ccccc3C2=O)cc1 (stereo not shown) [Indoprofen, indoprofen, reference compound]
EC50 [1, 12]: 0.46 µM
Max. fold increase [1]: 3 fold
exon 7 included full-length SMN-luciferase transcripts [5]: No consistent change
total SMN-luciferase transcripts [5]: No consistent change

CC(/C=C/C(=O)NO)=C\[C@@H](C)C(=O)c1ccc(N(C)C)cc1 [TSA]
exon 7 included full-length SMN-luciferase transcripts [5]: increased
total SMN-luciferase transcripts [5]: increased
